This is an account of results in patent US9247759B2, “Identification of human T2R receptors that respond to bitter compounds that elicit the bitter taste in compositions, and the use thereof in assays to identify compounds that inhibit (block) bitter taste in compositions and use thereof” (SENOMYX, INC., priority 2007, dated 2016).

Structures are written as SMILES.

The test system of one assay is hT2R55. Nature of the assay: hT2R panel inhibition, transient HEK293 G16g44, agonist Cinchonine 150 μM. In kind it is cell-based, human. Particulars: compound at 25 μM; receptor activated to EC80 with the corresponding agonist. Put shortly: (§1)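 Receptor activity was measured in functional assays after single-receptor transient transfection; bitter agonists were used at their EC80 levels. A decrease in that activity when the test compound was added was taken as inhibition.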

The subject of a further assay is hT2R67. The experiment in a line: hT2R panel inhibition, transient HEK293 G16g44, agonist Andrographolide 5 μM. In kind it is cell-based, human. Particulars: compound at 25 μM; receptor activated to EC80 with the corresponding agonist. Put shortly: as §1
The target in the next assay is hT2R64 (Homo sapiens (Human), UniProt P59538). The experiment in a line: hT2R panel inhibition, transient HEK293 G16g44, agonist Aristolochic Acid 1 μM. In kind it is cell-based. Particulars: HEK293, compound at 25 μM; receptor activated to EC80 with the corresponding agonist; read-out: screening result against bitter receptor 64. Put shortly:
as §1

For another assay, the target named is hT2R16 (Homo sapiens (Human), UniProt Q9NYV7). Nature of the assay: hT2R panel inhibition, transient HEK293 G16g44, agonist Salicin 1 mM. In kind it is cell-based. The conditions noted are these: HEK293, compound at 25 μM; receptor activated to EC80 with the corresponding agonist; read-out: screening result against bitter receptor 16. The method, boiled down:
as §1

In a further assay the target is hT2R10 (Homo sapiens (Human), UniProt Q9NYW0). Nature of the assay: hT2R panel inhibition, transient HEK293 G16g44, agonist Strychnine 50 μM. The conditions noted are these: HEK293, read-out: screening result against bitter receptor 10, compound at 25 μM; receptor activated to EC80 with the corresponding agonist. In kind it is cell-based.
The target of a further assay is hT2R51 (Homo sapiens (Human), UniProt P59533). Nature of the assay: hT2R panel inhibition, transient HEK293 G16g44, agonist Prop 2.5 μM. In kind it is cell-based. The conditions noted are these: HEK293, compound at 25 μM; receptor activated to EC80 with the corresponding agonist; read-out: screening result against bitter receptor 51. On the procedure:
(§2) Specifically, in order to evaluate the inhibitory selectivity of the Compound C compound, this compound was tested against 22 human T2Rs which were deorphaned by Senomyx. These receptors and the bitter ligands that activate these human T2Rs are reported in earlier patent applications which are incorporated by reference herein. These 22 human T2Rs are hT2R1, 3, 4, 5, 7, 8, 9, 10, 13, 14, 16, 44, 51, 54, 55, 61, 63, 64, 65, 67, 71 and 75. The amino acid and nucleic acid sequences of all of these T2Rs may be found in these earlier patent applications. These human T2Rs were each individually transiently transfected into HEK293 cells that stably express the promiscuous G protein G16g44 and functional assays were effected using these receptors as disclosed in these same patent applications. […] The ligands were used at EC80 concentration levels. The list of bitter ligands utilized and the tested ligand concentrations are contained in Table 5 of this example.
(§3) Relating to the foregoing, FIG. 5 contains experimental results wherein Compound C was tested with different agonist compounds. The inhibition activity is represented by the reduction of receptor activity in the presence of Compound C. […] These 13 hT2Rs are hT2R3, 7, 10, 14, 16, 44, 51, 55, 61, 63, 64, 65, and 71.

The next assay has as its system hT2R65. Nature of the assay: hT2R panel inhibition, transient HEK293 G16g44, agonist Oleuropein 1 mM. In kind it is cell-based, human. Particulars: compound at 25 μM; receptor activated to EC80 with the corresponding agonist. Put shortly:
as §1

The target in another assay is hT2R3 (Homo sapiens (Human), UniProt Q9NYW6). Nature of the assay: hT2R panel inhibition, transient HEK293 G16g44, agonist Chloroquine pH6.5 50 μM. In kind it is cell-based. The conditions noted are these: HEK293, compound at 25 μM; receptor activated to EC80 with the corresponding agonist; read-out: screening result against bitter receptor 3. The method, boiled down:
as §1

The next assay addresses hT2R61 (Homo sapiens (Human), UniProt P59537). The experiment in a line: hT2R panel inhibition, transient HEK293 G16g44, agonist Aristolochic Acid 25 nM. In kind it is cell-based. The conditions noted are these: HEK293, compound at 25 μM; receptor activated to EC80 with the corresponding agonist; read-out: screening result against bitter receptor 61. The method, boiled down: as §1

The next assay has as its target hT2R71 (Homo sapiens (Human), UniProt P59536). The experiment in a line: hT2R panel inhibition, transient HEK293 G16g44, agonist Picric Acid 10 μM. In kind it is cell-based. The conditions noted are these: HEK293, compound at 25 μM; receptor activated to EC80 with the corresponding agonist; read-out: screening result against bitter receptor 71. The method, boiled down:
as §1

Another assay relates to hT2R44. The experiment in a line: hT2R panel inhibition, transient HEK293 G16g44, agonist Denatonium 0.5 μM. In kind it is cell-based, human. The conditions noted are these: compound at 25 μM; receptor activated to EC80 with the corresponding agonist. Put shortly:
as §1

For a further assay, the system named is hT2R54. The experiment in a line: hT2R panel inhibition, transient HEK293 G16g44, agonist Ranitidine 5 mM. In kind it is cell-based, human. Particulars: compound at 25 μM; receptor activated to EC80 with the corresponding agonist. Put shortly:
as §1

The target in a further assay is hT2R7 (Homo sapiens (Human), UniProt Q9NYW3). The experiment in a line: hT2R panel inhibition, transient HEK293 G16g44, agonist Chloroquine pH6.5 10 mM. The conditions noted are these: HEK293, compound at 25 μM; receptor activated to EC80 with the corresponding agonist; read-out: screening result against bitter receptor 7. In kind it is cell-based. The method, boiled down: as §1

The subject of a further assay is hT2R63. The experiment in a line: hT2R panel inhibition, transient HEK293 G16g44, agonist Caffeine 1 mM or Andrographolide 100 μM. In kind it is cell-based, human. The conditions noted are these: compound at 25 μM; receptor activated to EC80 with the corresponding agonist. Put shortly:
as §1

In another assay the target is hT2R5 (Homo sapiens (Human), UniProt Q9NYW4). The experiment in a line: hT2R panel inhibition, transient HEK293 G16g44, agonist Picoline 10 mM. In kind it is cell-based. The conditions noted are these: HEK293, compound at 25 μM; receptor activated to EC80 with the corresponding agonist; read-out: screening result against bitter receptor 5. The method, boiled down:
as §1

In the next assay the target is hT2R14 (Homo sapiens (Human), UniProt Q9NYV8). Nature of the assay: hT2R panel inhibition, transient HEK293 G16g44, agonist Aristolochic Acid 2 μM. In kind it is cell-based. The conditions noted are these: HEK293, compound at 25 μM; receptor activated to EC80 with the corresponding agonist; read-out: screening result against bitter receptor 14. The method, boiled down: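 Each hT2R was transiently transfected into HEK293 cells stably expressing G16g44 and assayed functionally for inhibition of agonist response. Agonists were applied at EC80: andrographolide at 0.5 mM for hT2R8 and aristolochic acid at 2 μM for hT2R14.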

The target in a further assay is hT2R75 (Homo sapiens (Human), UniProt P59540). The experiment in a line: hT2R panel inhibition, transient HEK293 G16g44, agonist Strychnine 1 μM. In kind it is cell-based. The conditions noted are these: HEK293, read-out: screening result against bitter receptor 75, compound at 25 μM; receptor activated to EC80 with the corresponding agonist. The protocol:
as §2, §3

Sequence of hT2R71 (P59536 whole entry): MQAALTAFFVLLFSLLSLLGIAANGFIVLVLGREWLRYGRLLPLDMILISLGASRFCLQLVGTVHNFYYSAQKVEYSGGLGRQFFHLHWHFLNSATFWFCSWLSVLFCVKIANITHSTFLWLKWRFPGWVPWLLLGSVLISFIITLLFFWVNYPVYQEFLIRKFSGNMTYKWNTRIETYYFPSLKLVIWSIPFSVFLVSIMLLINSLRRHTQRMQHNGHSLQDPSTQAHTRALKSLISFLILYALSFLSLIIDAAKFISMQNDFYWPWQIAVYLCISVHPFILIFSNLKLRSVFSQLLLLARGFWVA
Sequence of hT2R3 (Q9NYW6 whole entry): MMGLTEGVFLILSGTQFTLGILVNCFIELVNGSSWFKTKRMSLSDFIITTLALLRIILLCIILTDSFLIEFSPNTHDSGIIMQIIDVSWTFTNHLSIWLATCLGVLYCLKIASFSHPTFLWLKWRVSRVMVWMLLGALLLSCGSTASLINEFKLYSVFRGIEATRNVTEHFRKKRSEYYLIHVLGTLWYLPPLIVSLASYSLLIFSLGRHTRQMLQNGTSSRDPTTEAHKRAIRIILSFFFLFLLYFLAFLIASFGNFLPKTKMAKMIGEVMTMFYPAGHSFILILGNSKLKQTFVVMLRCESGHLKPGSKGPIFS
Sequence of hT2R14 (Q9NYV8 whole entry): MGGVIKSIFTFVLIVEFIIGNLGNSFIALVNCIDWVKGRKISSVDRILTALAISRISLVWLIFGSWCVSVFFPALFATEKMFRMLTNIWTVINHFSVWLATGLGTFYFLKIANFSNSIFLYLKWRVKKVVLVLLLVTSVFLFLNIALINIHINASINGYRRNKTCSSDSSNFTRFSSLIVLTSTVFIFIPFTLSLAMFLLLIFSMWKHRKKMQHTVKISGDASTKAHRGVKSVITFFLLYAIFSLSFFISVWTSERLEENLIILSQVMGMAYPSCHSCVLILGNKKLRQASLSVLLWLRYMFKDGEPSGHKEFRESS
Sequence of hT2R5 (Q9NYW4 whole entry): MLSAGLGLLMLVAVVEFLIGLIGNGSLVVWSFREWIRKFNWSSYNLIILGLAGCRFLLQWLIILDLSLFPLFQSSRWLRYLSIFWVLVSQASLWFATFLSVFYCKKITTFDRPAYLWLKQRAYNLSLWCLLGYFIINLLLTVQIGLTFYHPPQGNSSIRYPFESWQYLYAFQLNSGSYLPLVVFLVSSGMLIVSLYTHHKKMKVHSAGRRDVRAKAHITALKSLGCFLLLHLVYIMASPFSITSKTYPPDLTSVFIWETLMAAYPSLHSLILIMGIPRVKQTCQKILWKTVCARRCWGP
Sequence of hT2R61 (P59537 whole entry): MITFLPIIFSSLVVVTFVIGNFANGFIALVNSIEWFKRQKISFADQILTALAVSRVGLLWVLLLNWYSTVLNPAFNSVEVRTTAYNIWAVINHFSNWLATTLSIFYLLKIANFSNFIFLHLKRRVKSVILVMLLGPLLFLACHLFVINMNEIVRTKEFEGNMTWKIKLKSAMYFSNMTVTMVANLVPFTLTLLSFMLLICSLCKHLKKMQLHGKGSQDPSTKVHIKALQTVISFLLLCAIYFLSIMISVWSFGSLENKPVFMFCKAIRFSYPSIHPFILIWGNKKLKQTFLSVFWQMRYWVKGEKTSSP
Sequence of hT2R64 (P59538 whole entry): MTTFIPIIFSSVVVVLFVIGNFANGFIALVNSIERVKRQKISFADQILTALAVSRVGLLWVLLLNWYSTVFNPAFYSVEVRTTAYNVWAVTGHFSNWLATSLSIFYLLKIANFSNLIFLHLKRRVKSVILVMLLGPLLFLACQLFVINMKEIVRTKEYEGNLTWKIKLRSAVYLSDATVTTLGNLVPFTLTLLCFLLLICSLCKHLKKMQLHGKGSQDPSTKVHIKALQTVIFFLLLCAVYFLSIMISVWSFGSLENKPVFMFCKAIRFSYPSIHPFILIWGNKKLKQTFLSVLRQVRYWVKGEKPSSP
Sequence of hT2R7 (Q9NYW3 whole entry): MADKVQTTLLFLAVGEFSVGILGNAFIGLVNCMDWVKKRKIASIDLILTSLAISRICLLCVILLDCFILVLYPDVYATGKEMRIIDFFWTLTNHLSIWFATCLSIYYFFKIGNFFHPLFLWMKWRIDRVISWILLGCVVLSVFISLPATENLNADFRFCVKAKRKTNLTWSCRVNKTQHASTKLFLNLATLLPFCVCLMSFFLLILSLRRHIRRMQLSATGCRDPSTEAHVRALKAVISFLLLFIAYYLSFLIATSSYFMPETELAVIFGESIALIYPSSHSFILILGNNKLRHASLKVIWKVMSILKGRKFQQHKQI
Sequence of hT2R10 (Q9NYW0 whole entry): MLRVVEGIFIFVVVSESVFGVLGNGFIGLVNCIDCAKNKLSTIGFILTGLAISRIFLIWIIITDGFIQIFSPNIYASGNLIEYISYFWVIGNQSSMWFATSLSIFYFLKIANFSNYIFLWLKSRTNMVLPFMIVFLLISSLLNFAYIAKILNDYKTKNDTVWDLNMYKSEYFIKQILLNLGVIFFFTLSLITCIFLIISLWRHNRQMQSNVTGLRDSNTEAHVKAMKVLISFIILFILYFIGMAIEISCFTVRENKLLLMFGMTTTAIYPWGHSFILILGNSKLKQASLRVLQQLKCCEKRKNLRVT
Sequence of hT2R16 (Q9NYV7 whole entry): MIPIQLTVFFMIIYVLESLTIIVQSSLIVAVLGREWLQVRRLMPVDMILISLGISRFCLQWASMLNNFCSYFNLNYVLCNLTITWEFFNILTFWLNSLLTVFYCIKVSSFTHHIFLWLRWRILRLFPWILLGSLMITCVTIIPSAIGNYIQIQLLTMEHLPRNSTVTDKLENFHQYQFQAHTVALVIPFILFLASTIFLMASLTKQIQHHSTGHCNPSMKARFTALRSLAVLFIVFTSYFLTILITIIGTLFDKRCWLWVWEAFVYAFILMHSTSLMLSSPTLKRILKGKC
Sequence of hT2R51 (P59533 whole entry): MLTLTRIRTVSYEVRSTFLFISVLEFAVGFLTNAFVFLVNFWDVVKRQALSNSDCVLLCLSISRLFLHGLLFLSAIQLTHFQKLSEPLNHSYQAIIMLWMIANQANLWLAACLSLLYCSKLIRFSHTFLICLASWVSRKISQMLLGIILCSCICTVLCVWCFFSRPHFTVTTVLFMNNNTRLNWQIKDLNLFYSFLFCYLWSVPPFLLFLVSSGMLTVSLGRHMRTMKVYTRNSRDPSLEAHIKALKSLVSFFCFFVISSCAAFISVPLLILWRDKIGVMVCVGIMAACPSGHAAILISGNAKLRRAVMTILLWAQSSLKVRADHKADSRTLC
Sequence of hT2R75 (P59540 whole entry): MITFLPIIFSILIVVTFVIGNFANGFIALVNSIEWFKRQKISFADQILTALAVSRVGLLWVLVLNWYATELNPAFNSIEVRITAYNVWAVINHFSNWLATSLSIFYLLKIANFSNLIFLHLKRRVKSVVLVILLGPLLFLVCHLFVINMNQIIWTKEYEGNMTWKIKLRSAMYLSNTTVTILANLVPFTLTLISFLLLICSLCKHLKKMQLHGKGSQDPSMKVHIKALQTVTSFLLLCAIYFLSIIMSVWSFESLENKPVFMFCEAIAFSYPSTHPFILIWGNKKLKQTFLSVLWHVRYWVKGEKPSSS

With `COc1ccc(CN(Cc2ccccc2OC)S(=O)(=O)c2ccc(C(=O)O)cc2)cc1` [Example 5-58, 4-(N-(2-methoxybenzyl)-N-(4-methoxybenzyl)sulfamoyl)benzoic acid], in the assay on hT2R55, the “screening result against bitter receptor 55” value was “+++ (60% to 80% inhibition = +++)”. Further, the “screening result against bitter receptor 67” value with hT2R67 is “+ (20% to 40% inhibition = +)”. In addition, the inhibition at 25 µM on hT2R64 was 60 to 80%; at hT2R16, 20 to 40%; on hT2R10, 60 to 80%; at hT2R51 it was 20 to 40%; at hT2R3, 60 to 80%; on hT2R61, above 80%. Also, the inhibition at 25 µM at hT2R71 is above 80%; on hT2R7 it was 60 to 80%; at hT2R5 it was 20 to 40%; at hT2R14, above 80%; on hT2R75, 20 to 40%. For the same molecule, the “screening result against bitter receptor 65” value in the assay with hT2R65 was “++++ (80% or greater inhibition = ++++)”. Further, the “screening result against bitter receptor 44” value with hT2R44 is given as “+++ (60% to 80% inhibition = +++)”. For the same molecule, in the assay with hT2R54, the “screening result against bitter receptor 54” value is given as “+++ (60% to 80% inhibition = +++)”. For the same molecule, in the assay on hT2R63, the “screening result against bitter receptor 63” value was “++++ (80% or greater inhibition = ++++)”.

In the case of `COc1ccc(CN(Cc2ccccc2Cl)S(=O)(=O)c2ccc(C(=O)O)cc2)cc1` [Example 5-68, 4-(N-(2-chlorobenzyl)-N-(4-methoxybenzyl)sulfamoyl)benzoic acid], in the assay on hT2R55, the “screening result against bitter receptor 55” value was “++++ (80% or greater inhibition = ++++)”. The “screening result against bitter receptor 67” value with hT2R67 is “+ (20% to 40% inhibition = +)”. The inhibition at 25 µM at hT2R64 is 60 to 80%; at hT2R16, 20 to 40%; on hT2R10, 20 to 40%; on hT2R51 it was 20 to 40%; at hT2R3, 20 to 40%; on hT2R61, 60 to 80%. Moreover, the inhibition at 25 µM on hT2R71 was 60 to 80%; on hT2R7 it was 20 to 40%; at hT2R5, 40 to 60%; on hT2R14, above 80%; on hT2R75, 20 to 40%. Besides, the “screening result against bitter receptor 65” value in the assay with hT2R65 is “+ (20% to 40% inhibition = +)”. The “screening result against bitter receptor 44” value in the assay with hT2R44 is given as “++ (40% to 60% inhibition = ++)”. Moreover, in the assay on hT2R54, the “screening result against bitter receptor 54” value was “+ (20% to 40% inhibition = +)”. Besides, in the assay on hT2R63, the “screening result against bitter receptor 63” value is recorded as “++++ (80% or greater inhibition = ++++)”.

As for `COc1ccccc1CN(Cc1ccccc1)S(=O)(=O)c1ccc(C(=O)O)cc1` [Example 5-71, 4-(N-benzyl-N-(2-methoxybenzyl)sulfamoyl)benzoic acid], the “screening result against bitter receptor 55” value in the assay with hT2R55 is “++ (40% to 60% inhibition = ++)”. Besides, the “screening result against bitter receptor 67” value in the assay with hT2R67 is reported as “+ (20% to 40% inhibition = +)”. The inhibition at 25 µM on hT2R64 was 20 to 40%; at hT2R16 it was 20 to 40%; on hT2R10 it was 20 to 40%; on hT2R51, 40 to 60%; at hT2R3, 20 to 40%; on hT2R61, above 80%. Besides, the inhibition at 25 µM on hT2R71 is 40 to 60%; on hT2R7, 20 to 40%; at hT2R5 it was 20 to 40%; at hT2R14 it was above 80%; at hT2R75, 20 to 40%. The “screening result against bitter receptor 65” value in the assay on hT2R65 was “++ (40% to 60% inhibition = ++)”. Moreover, the “screening result against bitter receptor 54” value with hT2R54 was “+++ (60% to 80% inhibition = +++)”. For the same molecule, in the assay with hT2R63, the “screening result against bitter receptor 63” value is “++++ (80% or greater inhibition = ++++)”.
